Assay results reported in patent US7304094B2, “Cyclohexyl sulphones” (Merck Sharp + Dohme, priority 2001, dated 2007).

melting point: 147 to 154 °C
Compound: O=C(C[C@H]1CC[C@@](c2cc(F)ccc2F)(S(=O)(=O)c2ccc(Cl)cc2)CC1)c1ncn[nH]1 [Example 91]
